Tests used:
[1] = test system: sciatic nerve of Sarm1 KO mice; assay: Local application to sciatic nerve using Surgifoam wrap, Sarm1 KO mice; assay type: in vivo, mouse; conditions: 500 mM 3-AP, seven days
Procedure: (§1) Mice: All experiments were performed in accordance with the protocols of the Institutional Animal Care and Use Committee of Washington University in St. Louis and the guidelines for the Care and Use of Laboratory Animals of the National Institutes of Health. Mice were housed on a 12 hr light dark cycle with less than 5 mice per cage and with water and food available at all times. Male and female mice were used for all experiments. 5-week old mice were used for IP injection and 5-6-month old mice were used for Surgifoam wrap treatments. Sarm1 KO mice were a gift from Macro Colonna at Department of Pathology and Immunology, Washington University School of Medicine in St. Louis, and C57BL/6 mice were purchased from Jackson Laboratory.
(§2) IP injection and local application of 3-AP to sciatic nerve using Surgifoam wrap 5 week-old mice were used for IP injection experiment. Suitable skin incisions were made at the mid-thigh level of […], followed by a small incision or blunt dissection to the muscle fascia to permit retraction of the biceps femoris and gluteus superficialis muscles to expose the sciatic nerve. The nerve was carefully separated from surrounding connective tissue and then a 0.5×1 cm piece of sterile absorbable hemostatic material (Surgifoam) soaked in 500 mM 3-AP (or saline control) was wrapped around the sciatic nerve. […]

SARM1 = assay: cADPR levels in sciatic nerve after IP injection, WT mice; assay type: in vivo, mouse; conditions: 275 mg/kg IP, 3 days post-administration
Procedure: as §1
(§3) Metabolite measurement using LC-MS/MS: Lyophilized samples were reconstituted with 50 μl of 5 mM ammonium formate and centrifuged at 12,000 g for 10 min. Cleared supernatants were transferred to sample vials. Serial dilutions of standards for each metabolite in 5 mM ammonium formate were used for calibration. […] Raw data were acquired and quantified using MassHunter Workstation software version B.08.00 for 6400 Series Triple Quadrupole (Agilent Technologies, Santa Clara, CA). […]

[2] = test system: rabbits, dogs, mice and rats; conditions: early studies; could be blocked by administration of Nam; cited from earlier work
sciatic nerve of WT mice = assay: Local application to sciatic nerve using Surgifoam wrap, WT mice; assay type: in vivo, mouse
Procedure: as §1
(§4) IP injection and local application of 3-AP to sciatic nerve using Surgifoam wrap 5 week-old mice were used for IP injection experiment. Suitable skin incisions were made at the mid-thigh level of 5 week-old mice, followed by a small incision or blunt dissection to the muscle fascia to permit retraction of the biceps femoris and gluteus superficialis muscles to expose the sciatic nerve. The nerve was carefully separated from surrounding connective tissue and then a 0.5×1 cm piece of sterile absorbable hemostatic material (Surgifoam) soaked in 500 mM 3-AP (or saline control) was wrapped around the sciatic nerve. Wound clips, and/or tissue adhesive were used to close the incision.
Tissue processing: Tibial nerves from both control and 3-AP treated sides was dissected out 7 days post-surgery. The distal 2 cm portion of the nerve was fixed in 4% paraformaldehyde for 1 hr at room temperature, then moved to 30% sucrose and embedded in OCT for cryosectioning in the following day. Immunocytochemistry was performed on tibial cryosections using NF200 (Sigma N4142, 1:1000) and MBP (Millipore MAB386, 1:100) followed by anti-rabbit-Alexa488 (1:500) and anti-rat-Cy3 (1:500). The proximal 2 cm portion of the sciatic nerves were fixed in 3% Glutaraldehyde for processing and embedding in epoxy/plastic. Toluidine blue thick sections (400-600 nm thickness) were cut and axon counting was performed using binary image analysis.

Sarm1 KO mice [3] = assay: cADPR levels in sciatic nerve after IP injection, Sarm1 KO mice; assay type: in vivo, mouse; conditions: similar IP injections
Procedure: as §1, §3

[4] = test system: Sarm1 KO DRG neurons expressing W103A, R157A or K193R SARM1 mutants or wildtype SARM1; assay: Axon degeneration in Sarm1 KO DRG neurons infected with lentivirus expressing wildtype or allosteric pocket mutant SARM1; assay type: cell-based, mouse; conditions: 3-AP 300 μM
Procedure: (§5) DRG neuron culture: Mouse DRG culture was as described previously. Mouse DRGs were dissected at embryonic day 13.5. Approximately 50 ganglia were collected from each embryo and dissociated in 0.05% Trypsin containing 0.02% EDTA (Gibco) at 37° C. for 20 min. The DRG neurons were washed 3 times with DRG culture medium after incubation with Trypsin. Cells were seeded as spot cultures in 96-tissue culture plates (Corning) coated with 0.1 mg/ml poly-D-lysine and 0.1 mg/ml laminin. They were cultured in Neurobasal (Gibco) containing 2% B27 (Invitrogen), 100 ng/ml 2.5S NGF (Harlan Bioproducts), and 1 μM 5-fluoro-2′-deoxyuridine/1 μM uridine. The culture medium was exchanged with fresh DRG culture medium every 2-3 days. Lentiviruses were added 3 days after seeding (DIV3).
Lentivirus production: Lentivirus production was performed as described previously. HEK 293T cells were seeded with the density of 1×10^6 in 35 mm well tissue culture plate (Corning). […]
Quantification of axon degeneration: After culture for 7 days, axotomy was performed by cutting DRG axons manually with a razor blade. […] Axon degeneration indexes were calculated from these bright-field images using ImageJ (NIH). The axon degeneration index was calculated as the ratio of fragmented axon areas as previously described. Indexes were calculated as the average of six fields per well.

[5] = test system: WT mouse embryonic dorsal root ganglion (DRG) neurons; assay: MTT assay of neuronal death in WT DRG neurons; assay type: cell-based; conditions: 12 hr treatment
Procedure: as §5

Sarm1 KO DRG neurons [6] = assay: Axon degeneration and neuronal death in cultured Sarm1 KO DRG neurons; assay type: cell-based, mouse; conditions: escalating doses, even at 1 mM
Procedure: as §5
(§6) Quantification of axon degeneration: After culture for 7 days, axotomy was performed by cutting DRG axons manually with a razor blade. After axon transection, bright-field images of distal axons were taken using the Operetta automated imaging system (PerkinElmer). Axon degeneration indexes were calculated from these bright-field images using ImageJ (NIH). The axon degeneration index was calculated as the ratio of fragmented axon areas as previously described. Indexes were calculated as the average of six fields per well.

Sarm1 KO DRG neurons [7] = assay: Metabolite measurement by LC-MS/MS in Sarm1 KO DRG neurons; assay type: cell-based, mouse; conditions: 3-AP-treated Sarm1 KO neurons
Procedure: as §5
Metabolite measurement using LC-MS/MS: Lyophilized samples were reconstituted with 50 μl of 5 mM ammonium formate and centrifuged at 12,000 g for 10 min. Cleared supernatants were transferred to sample vials. Serial dilutions of standards for each metabolite in 5 mM ammonium formate were used for calibration. […] Raw data were acquired and quantified using MassHunter Workstation software version B.08.00 for 6400 Series Triple Quadrupole (Agilent Technologies, Santa Clara, CA).

WT mice = assay: Survival after IP injection of 3-AP, WT mice; assay type: in vivo, mouse
Procedure: as §1, §4

Sarm1 KO mice [8] = assay: Survival after IP injection of 3-AP, Sarm1 KO mice; assay type: in vivo, mouse
Procedure: as §1, §2

WT DRG neurons = assay: Metabolite measurement by LC-MS/MS in WT DRG neurons; assay type: cell-based, mouse
Procedure: as §5
Metabolite measurement using LC-MS/MS: Lyophilized samples were reconstituted with 50 μl of 5 mM ammonium formate and centrifuged at 12,000 g for 10 min. Cleared supernatants were transferred to sample vials. Serial dilutions of standards for each metabolite in 5 mM ammonium formate were used for calibration. HPLC-mass spectrometry analysis was performed on an Agilent 1290 Infinity II liquid chromatography system (Agilent Technologies, Santa Clara, CA) with a flexible pump, multisampler, sample cooler and an MCT containing an Atlantis T3 column (2.1×150 mm, 3 μm) and VanGuard guard cartridge (2.1 mm×5 mm, 3 μm) (Waters, Milford, MA), coupled to an Agilent 6470 Triple Quad mass spectrometer (Agilent Technologies, Santa Clara, CA). The mobile phase (0.15 ml/min) was 5 mM ammonium formate in water (A) and 100% methanol (B). The column was equilibrated with 0% B, maintained after injection for 2 min, then a linear gradient to 20% B applied over 4 min. The column was then ramped to 50% B over 2 min, and held at 50% for 2 min, then reverted back to 0% B over the next 5 min and allowed to re-equilibrate at 0% B for 9 min. The total run time was 24 min per sample. […] Raw data were acquired and quantified using MassHunter Workstation software version B.08.00 for 6400 Series Triple Quadrupole (Agilent Technologies, Santa Clara, CA).

[9] = test system: WT mouse embryonic dorsal root ganglion (DRG) neurons; assay: Axon degeneration in cultured WT DRG neurons; assay type: cell-based; conditions: WT DRG neurons
Procedure: as §5
as §6, with “Quantification of axon degeneration: After culture for 7 days, axotomy was performed by cutting DRG axons manually with a razor blade.” left out

## CC(=O)c1cccnc1 [3-AP, 3-acetylpyridine]
[1]
  axon loss in treated nerve: well protected from axon loss
SARM1
  increase of cADPR levels in the sciatic nerve: 3-4 fold
[2]
  toxicity on administration to animals: severe neurotoxicity and death
Sciatic nerve of WT mice; WT mice, 500 mM 3-AP, seven days, vs contralateral or saline-treated nerve
  axon loss in tibial nerve distal to treatment site: dramatic loss of axons
Sciatic nerve of WT mice; WT mice, Surgifoam soaked in 500 mM 3-AP on sciatic nerve
  gait after local treatment: rapidly develop an abnormal gait
Sciatic nerve of WT mice; WT mice, proximal to site of 500 mM 3-AP application
  axon damage in the proximal sciatic nerve: no detectable axon damage
Sciatic nerve of WT mice; local application to peripheral nerve
  systemic harm after local application: without apparent systemic harm
Sarm1 KO mice [3]
  cADPR levels in the sciatic nerve: no alteration in cADPR levels
[4]; allosteric pocket mutants
  axons of Sarm1 KO neurons expressing SARM1 W103A, R157A or K193R: remain intact
[4]; lentiviral wildtype SARM1
  axon degeneration in Sarm1 KO neurons expressing wildtype SARM1: restores 3-AP-induced axon degeneration
[5]
  neuronal death (MTT assay): causes neuronal death at similar doses
Sarm1 KO DRG neurons [6]
  effect on axon degeneration and neuronal death: no effect
Sarm1 KO DRG neurons [7]
  changes in the levels of NAD+, ATP, or cADPR: no significant changes
WT mice; 275 mg/kg IP
  survival: generally survive
WT mice; 400 mg/kg IP
  survival: die rapidly
WT mice; 500 mg/kg IP
  lethality: rapidly lethal
Sarm1 KO mice [8]; 275 mg/kg IP, n=5
  lethality: no lethality
Sarm1 KO mice [8]; up to 500 mg/kg IP
  survival and phenotype: survive and have no obvious phenotype
WT DRG neurons; 3-AP 300 μM, WT neurons
  NAD+ and ATP levels: Substantial NAD^+ and ATP depletion
WT DRG neurons; within four hours, p<0.001, n=3
  decline in NMN: greater than 50%
[9]
  doses at which axons rapidly degenerate at a rate similar to that after transection: above 250 μM
[9]; axonal integrity at multiple time points
  dose at which axons begin to degenerate slowly: 250 µM
